Laboratory results from publication PMC10122656, “Siglec-6 mediates the uptake of extracellular vesicles through a noncanonical glycolipid binding pocket” (Nature Communications, 2023).
Positions count from the first letter of the chain named. Where “and” joins values, the source holds several entries; their conditions need not be identical. Identical values can stand only once.

How the values were obtained:
Assay in all cases: Cell assay (liposome/EV binding, flow cytometry)
Type in all cases: cell-based
[1] = target: T1, R122A Siglec-6 CHO cells (Homo sapiens, UniProt O43699, R122A); conditions: replicates; for log10(MFI AF647) of GLL relative to log10(MFI AF647) of the same GLL against UT CHO cells (Fig. 2a): Sig-6 R122A, 3 mol% ganglioside liposomes
T1 construct: expressed in transfected cells
Procedure, shortened: (§1)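 Extruded PEGylated DSPC/cholesterol liposomes (100 nm filter; 130 ± 35 nm) bearing Siglec ligand and AF647 lipids. Cells + 50 µM liposome or 50 µg/mL EV, DMEM F12/5% FBS, 37 °C, 30 min; washed; anti-Siglec 1:250, ice 30 min; flow, Siglec+ gate.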

[2] = target: T2, Siglec-15 WT CHO cells (Homo sapiens, UniProt Q6ZMC9, K274L); conditions: Sig-15 WT; 3 mol% ganglioside liposomes; replicates
T2 construct: expressed in transfected cells
T2 sequence (Q6ZMC9 20-328 K274L): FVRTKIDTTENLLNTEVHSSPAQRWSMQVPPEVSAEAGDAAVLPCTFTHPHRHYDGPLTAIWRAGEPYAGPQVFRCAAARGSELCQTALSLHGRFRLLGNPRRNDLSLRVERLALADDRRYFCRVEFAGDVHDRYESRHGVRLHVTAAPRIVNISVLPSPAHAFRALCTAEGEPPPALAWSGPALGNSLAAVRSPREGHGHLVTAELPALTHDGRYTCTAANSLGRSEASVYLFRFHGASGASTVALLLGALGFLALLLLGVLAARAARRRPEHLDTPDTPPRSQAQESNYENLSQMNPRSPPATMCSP
Procedure, shortened: (§2)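 Cells are incubated for 30 min at 37 °C with ligand-displaying liposomes (50 µM lipid) or EVs (50 µg/mL protein) in DMEM F12 containing 5% FBS. After washing and anti-Siglec staining on ice, liposome binding is quantified by flow cytometry within the Siglec-positive population.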

[3] = target: T3, Siglec-10 WT CHO cells (Homo sapiens, UniProt Q96LC7); conditions: for log10(MFI AF647) of GLL relative to log10(MFI AF647) of the same GLL against UT CHO cells (Fig. 2a): Sig-10 WT, 3 mol% ganglioside liposomes, replicates; for GLL binding to Siglec-10 (in words): cell assay, optimized liposomal formulation
T3 construct: expressed in transfected cells
T3 sequence (Q96LC7 17-697): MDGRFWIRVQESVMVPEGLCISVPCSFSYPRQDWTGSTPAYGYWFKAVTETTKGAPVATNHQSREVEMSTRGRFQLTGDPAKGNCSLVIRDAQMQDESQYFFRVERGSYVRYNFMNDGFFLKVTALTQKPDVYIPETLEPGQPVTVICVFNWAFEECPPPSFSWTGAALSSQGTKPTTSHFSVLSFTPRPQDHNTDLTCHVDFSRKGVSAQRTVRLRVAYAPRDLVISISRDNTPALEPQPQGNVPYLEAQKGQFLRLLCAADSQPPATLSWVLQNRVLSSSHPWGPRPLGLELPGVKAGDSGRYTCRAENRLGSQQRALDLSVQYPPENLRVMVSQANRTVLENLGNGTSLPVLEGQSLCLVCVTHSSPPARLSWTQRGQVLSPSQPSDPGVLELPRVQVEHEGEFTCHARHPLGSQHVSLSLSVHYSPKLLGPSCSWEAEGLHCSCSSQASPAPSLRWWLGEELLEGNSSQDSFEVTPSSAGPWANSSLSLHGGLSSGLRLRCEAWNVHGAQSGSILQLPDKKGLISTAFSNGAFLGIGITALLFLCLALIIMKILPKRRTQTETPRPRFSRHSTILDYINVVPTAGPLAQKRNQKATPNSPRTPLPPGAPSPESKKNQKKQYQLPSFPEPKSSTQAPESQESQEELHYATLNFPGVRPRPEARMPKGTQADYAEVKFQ
Procedure, shortened: as §1

[4] = target: T4, Siglec-15 R143A CHO cells (Homo sapiens, UniProt Q6ZMC9, K274L/R143A); conditions: Sig-15 R143A; 3 mol% ganglioside liposomes; replicates
T4 construct: expressed in transfected cells
T4 sequence (Q6ZMC9 20-328 R143A/K274L): T2 sequence (Q6ZMC9 20-328 K274L) with R124A
Procedure, shortened: as §2

[5] = target: T5, Siglec-1 R116A CHO cells (Homo sapiens, UniProt Q9BZZ2, R116A); conditions: Sig-1 R116A; 3 mol% ganglioside liposomes; replicates
T5 construct: expressed in transfected cells
Procedure, shortened: as §1

[6] = target: T6, CD33 R119A CHO cells (Homo sapiens, UniProt P20138, R119A); conditions: 3 mol% ganglioside liposomes, replicates
T6 construct: expressed in transfected cells
Procedure, shortened: as §2

T5 sequence (Q9BZZ2 20-1709 R116A): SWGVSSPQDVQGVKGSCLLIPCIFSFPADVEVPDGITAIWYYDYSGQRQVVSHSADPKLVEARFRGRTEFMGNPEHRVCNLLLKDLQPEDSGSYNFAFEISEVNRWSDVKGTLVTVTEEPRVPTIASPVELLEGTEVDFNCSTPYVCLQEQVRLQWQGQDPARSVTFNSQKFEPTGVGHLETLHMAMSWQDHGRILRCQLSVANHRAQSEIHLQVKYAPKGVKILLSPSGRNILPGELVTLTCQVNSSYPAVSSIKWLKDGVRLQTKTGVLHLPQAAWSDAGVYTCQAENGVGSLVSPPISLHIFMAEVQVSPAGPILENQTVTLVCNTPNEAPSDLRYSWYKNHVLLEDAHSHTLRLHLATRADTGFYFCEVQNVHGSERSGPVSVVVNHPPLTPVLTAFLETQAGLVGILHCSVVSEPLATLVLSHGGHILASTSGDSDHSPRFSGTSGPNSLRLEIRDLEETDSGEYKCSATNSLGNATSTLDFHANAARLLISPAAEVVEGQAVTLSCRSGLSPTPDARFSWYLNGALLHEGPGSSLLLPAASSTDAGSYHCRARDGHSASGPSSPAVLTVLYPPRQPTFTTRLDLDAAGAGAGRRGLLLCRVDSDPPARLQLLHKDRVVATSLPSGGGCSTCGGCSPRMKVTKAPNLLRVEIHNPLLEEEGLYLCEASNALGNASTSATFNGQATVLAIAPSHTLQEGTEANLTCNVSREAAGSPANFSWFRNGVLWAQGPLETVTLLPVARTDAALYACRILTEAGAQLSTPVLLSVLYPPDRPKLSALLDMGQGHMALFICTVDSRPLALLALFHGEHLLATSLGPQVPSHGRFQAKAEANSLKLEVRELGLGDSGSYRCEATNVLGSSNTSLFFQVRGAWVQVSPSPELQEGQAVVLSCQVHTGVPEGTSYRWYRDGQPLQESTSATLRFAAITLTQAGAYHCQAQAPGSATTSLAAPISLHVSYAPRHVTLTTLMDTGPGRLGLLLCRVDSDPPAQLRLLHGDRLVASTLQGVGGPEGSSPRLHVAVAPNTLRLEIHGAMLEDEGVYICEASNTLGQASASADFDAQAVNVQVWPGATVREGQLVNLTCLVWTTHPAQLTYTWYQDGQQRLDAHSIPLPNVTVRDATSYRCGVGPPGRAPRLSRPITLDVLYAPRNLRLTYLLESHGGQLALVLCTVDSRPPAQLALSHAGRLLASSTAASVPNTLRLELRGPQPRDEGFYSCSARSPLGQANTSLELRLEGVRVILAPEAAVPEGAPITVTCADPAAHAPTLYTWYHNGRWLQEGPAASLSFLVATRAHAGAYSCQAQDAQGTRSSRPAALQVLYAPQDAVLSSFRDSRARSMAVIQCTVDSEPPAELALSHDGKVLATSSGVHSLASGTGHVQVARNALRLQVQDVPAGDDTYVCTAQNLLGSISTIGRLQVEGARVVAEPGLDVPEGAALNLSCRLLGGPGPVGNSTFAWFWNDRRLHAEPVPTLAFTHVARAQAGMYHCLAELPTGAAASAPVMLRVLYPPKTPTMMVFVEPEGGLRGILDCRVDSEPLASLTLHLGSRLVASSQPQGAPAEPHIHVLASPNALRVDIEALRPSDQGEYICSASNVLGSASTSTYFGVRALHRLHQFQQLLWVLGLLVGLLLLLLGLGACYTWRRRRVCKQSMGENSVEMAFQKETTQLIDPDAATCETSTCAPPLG
T6 sequence (P20138 18-364 R119A): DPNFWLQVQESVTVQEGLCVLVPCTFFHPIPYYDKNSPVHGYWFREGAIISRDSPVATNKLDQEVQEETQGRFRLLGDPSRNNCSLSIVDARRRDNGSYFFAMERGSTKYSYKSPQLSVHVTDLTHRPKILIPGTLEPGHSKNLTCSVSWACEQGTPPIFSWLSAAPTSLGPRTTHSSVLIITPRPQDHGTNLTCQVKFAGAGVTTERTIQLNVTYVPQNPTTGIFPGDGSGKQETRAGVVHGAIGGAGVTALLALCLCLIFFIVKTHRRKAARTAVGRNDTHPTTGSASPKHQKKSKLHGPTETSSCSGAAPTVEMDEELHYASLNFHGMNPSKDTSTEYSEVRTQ
T1 sequence (O43699 27-453 R122A): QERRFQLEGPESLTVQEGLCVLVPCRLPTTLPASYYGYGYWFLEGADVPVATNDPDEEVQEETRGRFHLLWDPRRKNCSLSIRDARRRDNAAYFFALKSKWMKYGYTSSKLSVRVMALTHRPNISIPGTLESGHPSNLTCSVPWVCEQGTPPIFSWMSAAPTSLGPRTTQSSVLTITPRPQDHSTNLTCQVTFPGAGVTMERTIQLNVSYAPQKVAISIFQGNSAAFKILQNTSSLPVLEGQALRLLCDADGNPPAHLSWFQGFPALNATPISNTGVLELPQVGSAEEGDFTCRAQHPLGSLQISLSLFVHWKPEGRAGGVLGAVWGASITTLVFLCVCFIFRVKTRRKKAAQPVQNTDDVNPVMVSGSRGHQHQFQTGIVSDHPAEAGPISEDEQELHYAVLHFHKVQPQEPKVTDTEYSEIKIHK

Q: `CCCCCCCCCCCCCCCCOCC(COCCCCCCCCCCCCCCCC)OCc1cn(CCO[C@@H]2O[C@H](CO)[C@@H](O[C@@H]3O[C@H](CO)[C@H](O)[C@H](O[C@]4(C(=O)O)C[C@H](O)[C@@H](NC(C)=O)[C@H]([C@H](O)[C@H](O)CO)O4)[C@H]3O)[C@H](O)[C@H]2O)nn1` [nGL 5] was tested. Which “Binding of nGL liposomes relative to liposomes formulated with 3 mol% nGL 5 (Fig. 3g)” value ([1]; R122A Siglec-6 CHO cells, 3 mol% nGL) did it give?
A: 1.02 and 1.01 and 0.97

Q: How did the “log10(MFI AF647) of GLL relative to log10(MFI AF647) of the same GLL against UT CHO cells (Fig. 2a)” value [2] turn out when GD1a was run?
A: -0.08 and -0.06 and -0.07 (2×)

Q: And the “log10(MFI AF647) of GLL relative to log10(MFI AF647) of the same GLL against UT CHO cells (Fig. 2a)” value [1]?
A: 0.5 and 0.47 and 0.41 and 0.51

Q: And the “log10(MFI AF647) of GLL relative to log10(MFI AF647) of the same GLL against UT CHO cells (Fig. 2a)” value [3]?
A: 0.32 (2×) and 0.3 and 0.31

Q: What about the “log10(MFI AF647) of GLL relative to log10(MFI AF647) of the same GLL against UT CHO cells (Fig. 2a)” value [4] of the same compound?
A: -0.02 and -0.07 and -0.06 and -0.05

Q: And the “log10(MFI AF647) of GLL relative to log10(MFI AF647) of the same GLL against UT CHO cells (Fig. 2a)” value [5]?
A: -0.06 (2×) and -0.02 and -0.08

Q: And the “log10(MFI AF647) of GLL relative to log10(MFI AF647) of the same GLL against UT CHO cells (Fig. 2a)” value [6]?
A: 0 (2×) and -0.03 and -0.02

Q: With GD1b as the compound, how does the “log10(MFI AF647) of GLL relative to log10(MFI AF647) of the same GLL against UT CHO cells (Fig. 2a)” value [2] read?
A: -0.14 (2×) and -0.12 (2×)

Q: And the “log10(MFI AF647) of GLL relative to log10(MFI AF647) of the same GLL against UT CHO cells (Fig. 2a)” value [1]?
A: 0.2 and 0.17 (2×) and 0.16

Q: And the “log10(MFI AF647) of GLL relative to log10(MFI AF647) of the same GLL against UT CHO cells (Fig. 2a)” value [3]?
A: 0.18 and 0.23 and 0.2 and 0.22

Q: And the “log10(MFI AF647) of GLL relative to log10(MFI AF647) of the same GLL against UT CHO cells (Fig. 2a)” value [4]?
A: -0.12 and -0.14 (3×)

Q: What about the “log10(MFI AF647) of GLL relative to log10(MFI AF647) of the same GLL against UT CHO cells (Fig. 2a)” value [5] of the same compound?
A: -0.26 (2×) and -0.25 and -0.21

Q: What about the “log10(MFI AF647) of GLL relative to log10(MFI AF647) of the same GLL against UT CHO cells (Fig. 2a)” value [6] of the same compound?
A: -0.06 and -0.07 and -0.04 and -0.05

Q: GD3 was tested. Which “log10(MFI AF647) of GLL relative to log10(MFI AF647) of the same GLL against UT CHO cells (Fig. 2a)” value [2] did it give?
A: -0.02 and -0.01 and 0 and -0.03

Q: And the “log10(MFI AF647) of GLL relative to log10(MFI AF647) of the same GLL against UT CHO cells (Fig. 2a)” value [1]?
A: 0.78 (2×) and 0.7 and 0.79

Q: And the “log10(MFI AF647) of GLL relative to log10(MFI AF647) of the same GLL against UT CHO cells (Fig. 2a)” value [3]?
A: 0.33 (2×) and 0.31 (2×)

Q: And the “GLL binding to Siglec-10 (in words)” value [3]?
A: novel interactions were observed

Q: What about the “log10(MFI AF647) of GLL relative to log10(MFI AF647) of the same GLL against UT CHO cells (Fig. 2a)” value [4] of the same compound?
A: 0.02 and -0.02 and 0 and -0.01

Q: What about the “log10(MFI AF647) of GLL relative to log10(MFI AF647) of the same GLL against UT CHO cells (Fig. 2a)” value [5] of the same compound?
A: -0.04 (2×) and -0.02 and 0.05

Q: What about the “log10(MFI AF647) of GLL relative to log10(MFI AF647) of the same GLL against UT CHO cells (Fig. 2a)” value [6] of the same compound?
A: 0 (2×) and 0.03 (2×)

Q: GM1 was tested. Which “log10(MFI AF647) of GLL relative to log10(MFI AF647) of the same GLL against UT CHO cells (Fig. 2a)” value [2] did it give?
A: -0.21 and -0.2 and -0.17 (2×)

Q: And the “log10(MFI AF647) of GLL relative to log10(MFI AF647) of the same GLL against UT CHO cells (Fig. 2a)” value [1]?
A: 0.91 and 0.89 and 0.86 and 0.85

Q: And the “log10(MFI AF647) of GLL relative to log10(MFI AF647) of the same GLL against UT CHO cells (Fig. 2a)” value [3]?
A: 0.32 (2×) and 0.35 and 0.26

Q: What about the “GLL binding to Siglec-10 (in words)” value [3] of the same compound?
A: novel interactions were observed

Q: And the “log10(MFI AF647) of GLL relative to log10(MFI AF647) of the same GLL against UT CHO cells (Fig. 2a)” value [4]?
A: -0.08 and -0.12 (2×) and -0.11

Q: And the “log10(MFI AF647) of GLL relative to log10(MFI AF647) of the same GLL against UT CHO cells (Fig. 2a)” value [5]?
A: -0.21 and -0.24 and -0.22 and -0.2

Q: What about the “log10(MFI AF647) of GLL relative to log10(MFI AF647) of the same GLL against UT CHO cells (Fig. 2a)” value [6] of the same compound?
A: -0.15 and -0.13 and -0.21 (2×)
